The values below come from ChEMBL document CHEMBL1145355, “From selective substrate analogue factor Xa inhibitors to dual inhibitors of thrombin and factor Xa. Part 3” (Bioorg Med Chem Lett, 2007).

A value given as a limit tells only on which side of the number the result lay.

The target of data set [1] is Prothrombin (Homo sapiens, UniProt P00734). In words: Inhibition of thrombin.
The target of data set [2] is Urokinase-type plasminogen activator (Homo sapiens, UniProt P00749). Put plainly: Inhibition of uPA.
Data set [3] in a line: Inhibition of Plasmin. Details: species or system Homo sapiens.
Data set [4] addresses Trypsin (Homo sapiens, UniProt P07477+P07478+P35030). In words: Inhibition of trypsin. It counts as protein assay.
Data set [5] in a line: Anticoagulant activity in human plasma by aPTT assay. Type of data set: functional.
The subject of data set [6] is Plasma. Put plainly: Anticoagulant activity in human plasma by PT assay. It counts as functional.
For data set [7], the system named is Plasma. Put plainly: Anticoagulant activity in human plasma by TT assay. Type of data set: functional.
Data set [8] is described as follows: Permeability across Caco-2 cell membrane. It counts as ADME, cell-based. The following applies: human.
The target of data set [9] is Coagulation factor X (Homo sapiens, UniProt P00742).
Chain of Coagulation factor X (P00742 41-179 limits assumed): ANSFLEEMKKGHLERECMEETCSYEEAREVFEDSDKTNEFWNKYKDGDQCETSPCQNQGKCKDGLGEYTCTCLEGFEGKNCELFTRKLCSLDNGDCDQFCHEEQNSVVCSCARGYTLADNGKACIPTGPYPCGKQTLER
Chain of Coagulation factor X (P00742 235-488 limits assumed): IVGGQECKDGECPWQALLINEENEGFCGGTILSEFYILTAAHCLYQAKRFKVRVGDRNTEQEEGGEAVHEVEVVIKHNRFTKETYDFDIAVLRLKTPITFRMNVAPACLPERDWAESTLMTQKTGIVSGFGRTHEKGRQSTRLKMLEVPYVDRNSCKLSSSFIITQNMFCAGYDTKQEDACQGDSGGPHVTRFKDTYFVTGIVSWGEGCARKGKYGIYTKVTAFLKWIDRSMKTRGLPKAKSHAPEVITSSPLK
The nature of data set [10]: Half life in iv dosed rat. Type of data set: ADME, organism-based. The following applies: in vivo.
A short description of data set [11]: Bioavailability in rat at 5 mg/kg po. Type of data set: ADME, organism-based. The following applies: in vivo.
For data set [12], the system named is Rattus norvegicus. Put plainly: Clearance in bile of rat at 5 mg/kg po. It counts as ADME, organism-based. Also on record: dose 5 mg/kg, route oral. The following applies: in vivo.
Data set [13] in a line: % of dose in urine of rat at 5 mg/kg po. It counts as ADME, organism-based. Also on record: dose 5 mg/kg, route oral. The following applies: read-out: Compound in urine.

What is called Ki is the equilibrium dissociation constant of an inhibitor or competing ligand from its target. Read a high Ki as lower affinity. Usually Papp stands for the rate of passage across a membrane or cell layer, normalised by area and donor concentration. A lower Papp goes with poor permeation. For `CCOC(=O)CN[C@H](CCc1ccc(O)cc1)C(=O)N1CCC[C@H]1C(=O)NCc1cc(Cl)ccc1CN`, the inhibition constant Ki in data set [1] is 3.6 nM; in [2] it was above 5000 nM; in [3], above 5000 nM; in data set [4], above 500 nM; in [9] it was 17 nM. The IC200 in data set [5] is 0.58 µM; in data set [6] it was 0.85 µM; in [7], 0.23 µM. Further, in data set [8], the Papp came out at 8.9 ×10⁻⁶ cm/s.

The term half-life denotes the time needed for the level to fall by half in the phase considered. Low values mean fast loss, high ones slow loss. Regarding `NCc1ccc(Cl)cc1CNC(=O)CNC(=O)C(CCc1cccc[n+]1[O-])NC(=O)C(=O)O` (stereo unspecified), the inhibition constant (Ki) in data set [1] is 18000 nM; in data set [2], above 5000 nM; in [3], above 5000 nM; in data set [4], above 500 nM; in [9] it was 4.9 nM. Also, the IC200 in data set [5] was found to be 1.85 µM; in data set [6], 0.13 µM; in [7], 15 µM. In data set [10], the half-life stood at 30 min.

In the case of `CCOC(=O)CN[C@H](CCc1ccccn1)C(=O)N1CCC[C@H]1C(=O)NCc1cc(Cl)ccc1CN`, the inhibitory constant (Ki) was 3.8 nM in [1], above 5000 nM in data set [2], above 5000 nM in [3] and above 500 nM in data set [4]. Also, the IC200 in data set [5] was 0.23 µM; in data set [6] it was 0.6 µM; in data set [7], 0.09 µM. This compound yielded an apparent permeability (Papp) in data set [8] of 2.4 ×10⁻⁶ cm/s.

As a reminder, the bioavailability is dose-corrected exposure relative to a reference, in per cent. Take `NCc1ccc(Cl)cc1CNC(=O)CNC(=O)[C@@H](CCc1cccc[n+]1[O-])NS(=O)(=O)Cc1ccccc1`: the inhibition constant (Ki) in data set [1] is 170 nM; in data set [2] it was 150000 nM; in data set [3], 930000 nM; in data set [4], 6500 nM. The figures for the IC200 in data set [5] and in data set [7] were 0.16 µM and 0.5 µM, respectively. In data set [10], this compound showed a half-life below 20 min. Also, in data set [11], the bioavailability was below 5%. The compound further registered a CL_biliary in data set [12] of 75%. In data set [13], the dose excreted worked out at 15%.
